Source: patent US20230085307A1, “PYRIDAZINONE COMPOUND AND HERBICIDE” (NISSAN CHEMICAL CORPORATION, priority 2019, published 2023)

Key:
[1] = tested on: barnyard grass; assay: Test Example 3: herbicidal effect by foliage application, Wagner pot (Table 18, symbol H); type: in vivo, barnyard grass (Echinochloa crus-galli)
Outline: (§1)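 Plants were sown in alluvial soil held under 0.1–0.5 cm standing water and grown 14 days in a greenhouse at 25–30 °C. An emulsifiable formulation, water-diluted to the set dose, was then sprayed onto the foliage, and effects were scored three weeks later using previously defined criteria.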

[2] = tested on: Chinese sprangletop; assay: Test Example 3: herbicidal effect by foliage application, Wagner pot (Table 18, symbol D); type: in vivo, chinese sprangletop (Leptochloa chinensis)
Outline: as §1

[3] = tested on: rice flat sedge; assay: Test Example 3: herbicidal effect by foliage application, Wagner pot (Table 18, symbol E); type: in vivo, rice flat sedge (Cyperus iria)
Outline: as §1

[4] = tested on: southern crabgrass; assay: Test Example 5: herbicidal effect by foliage application, plastic box (Table 20, symbol F); type: in vivo, southern crabgrass (Digitaria ciliaris); conditions: foliage application
Outline: (§2)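 Plants sown in sterilized diluvial soil and grown 14 days in a greenhouse at 25° C to 30° C, then sprayed on the foliage with the compound's emulsion diluted in water to a predetermined herbicide amount. Injury to weeds and crops scored three weeks after application on a visual rating scale.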

[5] = tested on: green foxtail; assay: Test Example 5: herbicidal effect by foliage application, plastic box (Table 20, symbol G); type: in vivo, green foxtail (Setaria viridis); conditions: foliage application
Outline: as §2

[6] = tested on: barnyard grass; assay: Test Example 5: herbicidal effect by foliage application, plastic box (Table 20, symbol H); type: in vivo, barnyard grass (Echinochloa crus-galli); conditions: foliage application
Outline: as §2

[7] = tested on: wild oat; assay: Test Example 5: herbicidal effect by foliage application, plastic box (Table 20, symbol I); type: in vivo, wild oat (Avena fatua); conditions: foliage application
Outline: as §2

[8] = tested on: blackgrass; assay: Test Example 5: herbicidal effect by foliage application, plastic box (Table 20, symbol J); type: in vivo, blackgrass (Alopecurus myosuroides); conditions: foliage application
Outline: as §2

[9] = tested on: Italian ryegrass; assay: Test Example 5: herbicidal effect by foliage application, plastic box (Table 20, symbol K); type: in vivo, Italian ryegrass (Lolium multiflorum); conditions: foliage application
Outline: as §2

[10] = tested on: windgrass; assay: Test Example 5: herbicidal effect by foliage application, plastic box (Table 20, symbol L); type: in vivo, windgrass (Apera spica-venti); conditions: foliage application
Outline: as §2

[11] = tested on: velvetleaf; assay: Test Example 5: herbicidal effect by foliage application, plastic box (Table 20, symbol M); type: in vivo, velvetleaf (Abutilon theophrasti); conditions: foliage application
Outline: as §2

[12] = tested on: redroot pigweed; assay: Test Example 5: herbicidal effect by foliage application, plastic box (Table 20, symbol N); type: in vivo, redroot pigweed (Amaranthus retroflexus); conditions: foliage application
Outline: as §2

[13] = tested on: lambsquarters; assay: Test Example 5: herbicidal effect by foliage application, plastic box (Table 20, symbol O); type: in vivo, lambsquarters (Chenopodium album); conditions: foliage application
Outline: as §2

[14] = tested on: chickweed; assay: Test Example 5: herbicidal effect by foliage application, plastic box (Table 20, symbol P); type: in vivo, common chickweed (Stellaria media); conditions: foliage application
Outline: as §2

[15] = tested on: false cleavers; assay: Test Example 5: herbicidal effect by foliage application, plastic box (Table 20, symbol Q); type: in vivo, false cleavers (Galium spurium); conditions: foliage application
Outline: as §2

[16] = tested on: persian speedwell; assay: Test Example 5: herbicidal effect by foliage application, plastic box (Table 20, symbol R); type: in vivo, Persian speedwell (Veronica persica); conditions: foliage application
Outline: as §2

[17] = 320 g/ha, three weeks after application
[18] = AAH 320 g/ha, three weeks after application
[19] = AAH 485 g/ha, three weeks after application
[20] = amount of applied herbicide 320 g/ha
[21] = 320 g/ha, evaluated three weeks after application

Cc1nn(C)c(=O)c(-c2c(-c3ccoc3)sc3ccccc23)c1O [1-081]
herbicidal effect on H (barnyard grass), rating 0-5 ([1]; 320 g/ha): 3 (Herbicidal rate of 40% or more and less than 70%) | herbicidal effect on D (Chinese sprangletop), rating 0-5 ([2]; 320 g/ha): 0 (Herbicidal rate of 5% or less (almost no effect)) | herbicidal effect on E (rice flat sedge), rating 0-5 ([3]; 320 g/ha): 4 (Herbicidal rate of 70% or more and less than 90%) | herbicidal effect grade, F: southern crabgrass [4, 17]: 0 (Herbicidal rate of 5% or less (almost no effect)) | herbicidal effect grade, G: green foxtail [5, 17]: 0 (Herbicidal rate of 5% or less (almost no effect)) | herbicidal effect grade, H: barnyard grass [6, 17]: 0 (Herbicidal rate of 5% or less (almost no effect)) | herbicidal effect grade, I: wild oat [7, 17]: 0 (Herbicidal rate of 5% or less (almost no effect)) | herbicidal effect grade, J: blackgrass [8, 17]: 0 (Herbicidal rate of 5% or less (almost no effect)) | herbicidal effect grade, K: Italian ryegrass [9, 17]: 3 (Herbicidal rate of 40% or more and less than 70%) | herbicidal effect grade, L: windgrass [10, 17]: 0 (Herbicidal rate of 5% or less (almost no effect)) | herbicidal effect grade, M: velvetleaf [11, 17]: 3 (Herbicidal rate of 40% or more and less than 70%) | herbicidal effect grade, N: redroot pigweed [12, 17]: 2 (Herbicidal rate of 20% or more and less than 40%) | herbicidal effect grade, O: lambsquarters [13, 17]: 0 (Herbicidal rate of 5% or less (almost no effect)) | herbicidal effect grade, P: chickweed [14, 17]: 3 (Herbicidal rate of 40% or more and less than 70%) | herbicidal effect grade, Q: false cleavers [15, 17]: 2 (Herbicidal rate of 20% or more and less than 40%) | herbicidal effect grade, R: persian speedwell [16, 17]: 4 (Herbicidal rate of 70% or more and less than 90%)

Cc1nn(C)c(=O)c(-c2c(-c3ccc4c(c3)OCCO4)sc3ccccc23)c1OS(C)(=O)=O [1-094]
herbicidal effect on H (barnyard grass), rating 0-5 ([1]; 320 g/ha): 3 (Herbicidal rate of 40% or more and less than 70%) | herbicidal effect on D (Chinese sprangletop), rating 0-5 ([2]; 320 g/ha): 0 (Herbicidal rate of 5% or less (almost no effect)) | herbicidal effect on E (rice flat sedge), rating 0-5 ([3]; 320 g/ha): 3 (Herbicidal rate of 40% or more and less than 70%) | F: southern crabgrass, herbicidal effect [4, 18]: 0 (Herbicidal rate of 5% or less (almost no effect)) | G: green foxtail, herbicidal effect [5, 18]: 0 (Herbicidal rate of 5% or less (almost no effect)) | H: barnyard grass, herbicidal effect [6, 18]: 0 (Herbicidal rate of 5% or less (almost no effect)) | I: wild oat, herbicidal effect [7, 18]: 0 (Herbicidal rate of 5% or less (almost no effect)) | J: blackgrass, herbicidal effect [8, 18]: 0 (Herbicidal rate of 5% or less (almost no effect)) | K: Italian ryegrass, herbicidal effect [9, 18]: 0 (Herbicidal rate of 5% or less (almost no effect)) | L: windgrass, herbicidal effect [10, 18]: 0 (Herbicidal rate of 5% or less (almost no effect)) | M: velvetleaf, herbicidal effect [11, 18]: 3 (Herbicidal rate of 40% or more and less than 70%) | N: redroot pigweed, herbicidal effect [12, 18]: 1 (Herbicidal rate of 5% or more and less than 20%) | O: lambsquarters, herbicidal effect [13, 18]: 1 (Herbicidal rate of 5% or more and less than 20%) | P: chickweed, herbicidal effect [14, 18]: 0 (Herbicidal rate of 5% or less (almost no effect)) | Q: false cleavers, herbicidal effect [15, 18]: 0 (Herbicidal rate of 5% or less (almost no effect)) | R: persian speedwell, herbicidal effect [16, 18]: 4 (Herbicidal rate of 70% or more and less than 90%)

CCCC(=O)Oc1c(C)nn(C)c(=O)c1-c1c(-c2cc3c(cc2Cl)OCCO3)sc2ccccc12 [1-096]
herbicidal effect on H (barnyard grass), rating 0-5 ([1]; 485 g/ha): 5 (Herbicidal rate of 90% or more (almost completely withered)) | herbicidal effect on D (Chinese sprangletop), rating 0-5 ([2]; 485 g/ha): 2 (Herbicidal rate of 20% or more and less than 40%) | herbicidal effect on E (rice flat sedge), rating 0-5 ([3]; 485 g/ha): 0 (Herbicidal rate of 5% or less (almost no effect)) | F: southern crabgrass, herbicidal effect [4, 19]: 2 (Herbicidal rate of 20% or more and less than 40%) | G: green foxtail, herbicidal effect [5, 19]: 2 (Herbicidal rate of 20% or more and less than 40%) | H: barnyard grass, herbicidal effect [6, 19]: 3 (Herbicidal rate of 40% or more and less than 70%) | I: wild oat, herbicidal effect [7, 19]: 0 (Herbicidal rate of 5% or less (almost no effect)) | J: blackgrass, herbicidal effect [8, 19]: 0 (Herbicidal rate of 5% or less (almost no effect)) | K: Italian ryegrass, herbicidal effect [9, 19]: 0 (Herbicidal rate of 5% or less (almost no effect)) | L: windgrass, herbicidal effect [10, 19]: 0 (Herbicidal rate of 5% or less (almost no effect)) | M: velvetleaf, herbicidal effect [11, 19]: 1 (Herbicidal rate of 5% or more and less than 20%) | N: redroot pigweed, herbicidal effect [12, 19]: 4 (Herbicidal rate of 70% or more and less than 90%) | O: lambsquarters, herbicidal effect [13, 19]: 4 (Herbicidal rate of 70% or more and less than 90%) | P: chickweed, herbicidal effect [14, 19]: 3 (Herbicidal rate of 40% or more and less than 70%) | Q: false cleavers, herbicidal effect [15, 19]: 1 (Herbicidal rate of 5% or more and less than 20%) | R: persian speedwell, herbicidal effect [16, 19]: 5 (Herbicidal rate of 90% or more (almost completely withered))

CCCC(=O)Oc1c(C)nn(C)c(=O)c1-c1c(-c2ccc(Oc3ccccc3)cc2)sc2ccccc12 [1-150]
herbicidal effect on H (barnyard grass), rating 0-5 ([1]; 320 g/ha): 2 (Herbicidal rate of 20% or more and less than 40%) | herbicidal effect on D (Chinese sprangletop), rating 0-5 ([2]; 320 g/ha): 3 (Herbicidal rate of 40% or more and less than 70%) | herbicidal effect on E (rice flat sedge), rating 0-5 ([3]; 320 g/ha): 3 (Herbicidal rate of 40% or more and less than 70%) | F: southern crabgrass, herbicidal effect [4, 18]: 0 (Herbicidal rate of 5% or less (almost no effect)) | G: green foxtail, herbicidal effect [5, 18]: 0 (Herbicidal rate of 5% or less (almost no effect)) | H: barnyard grass, herbicidal effect [6, 18]: 0 (Herbicidal rate of 5% or less (almost no effect)) | I: wild oat, herbicidal effect [7, 18]: 0 (Herbicidal rate of 5% or less (almost no effect)) | J: blackgrass, herbicidal effect [8, 18]: 0 (Herbicidal rate of 5% or less (almost no effect)) | K: Italian ryegrass, herbicidal effect [9, 18]: 0 (Herbicidal rate of 5% or less (almost no effect)) | L: windgrass, herbicidal effect [10, 18]: 0 (Herbicidal rate of 5% or less (almost no effect)) | M: velvetleaf, herbicidal effect [11, 18]: 3 (Herbicidal rate of 40% or more and less than 70%) | N: redroot pigweed, herbicidal effect [12, 18]: 4 (Herbicidal rate of 70% or more and less than 90%) | O: lambsquarters, herbicidal effect [13, 18]: 2 (Herbicidal rate of 20% or more and less than 40%) | P: chickweed, herbicidal effect [14, 18]: 5 (Herbicidal rate of 90% or more (almost completely withered)) | Q: false cleavers, herbicidal effect [15, 18]: 5 (Herbicidal rate of 90% or more (almost completely withered)) | R: persian speedwell, herbicidal effect [16, 18]: 5 (Herbicidal rate of 90% or more (almost completely withered))

Cc1ccc2sc(-c3ccc4c(c3)OCCO4)c(-c3c(O)c(C)nn(C)c3=O)c2c1 [2-158]
herbicidal effect on H: barnyard grass [1, 20]: 0 (Herbicidal rate of 5% or less (almost no effect)) | herbicidal effect on D: Chinese sprangletop [2, 20]: 1 (Herbicidal rate of 5% or more and less than 20%) | herbicidal effect on E: rice flat sedge [3, 20]: 4 (Herbicidal rate of 70% or more and less than 90%) | herbicidal effect on F: southern crabgrass (criteria 0-5) [4, 21]: 0 (Herbicidal rate of 5% or less (almost no effect)) | herbicidal effect on G: green foxtail (criteria 0-5) [5, 21]: 0 (Herbicidal rate of 5% or less (almost no effect)) | herbicidal effect on H: barnyard grass (criteria 0-5) [6, 21]: 0 (Herbicidal rate of 5% or less (almost no effect)) | herbicidal effect on I: wild oat (criteria 0-5) [7, 21]: 0 (Herbicidal rate of 5% or less (almost no effect)) | herbicidal effect on J: blackgrass (criteria 0-5) [8, 21]: 0 (Herbicidal rate of 5% or less (almost no effect)) | herbicidal effect on K: Italian ryegrass (criteria 0-5) [9, 21]: 0 (Herbicidal rate of 5% or less (almost no effect)) | herbicidal effect on L: windgrass (criteria 0-5) [10, 21]: 0 (Herbicidal rate of 5% or less (almost no effect)) | herbicidal effect on M: velvetleaf (criteria 0-5) [11, 21]: 2 (Herbicidal rate of 20% or more and less than 40%) | herbicidal effect on N: redroot pigweed (criteria 0-5) [12, 21]: 0 (Herbicidal rate of 5% or less (almost no effect)) | herbicidal effect on O: lambsquarters (criteria 0-5) [13, 21]: 0 (Herbicidal rate of 5% or less (almost no effect)) | herbicidal effect on P: chickweed (criteria 0-5) [14, 21]: 5 (Herbicidal rate of 90% or more (almost completely withered)) | herbicidal effect on Q: false cleavers (criteria 0-5) [15, 21]: 0 (Herbicidal rate of 5% or less (almost no effect)) | herbicidal effect on R: persian speedwell (criteria 0-5) [16, 21]: 5 (Herbicidal rate of 90% or more (almost completely withered))
